The assay deals with T1, MdtM (Escherichia coli, UniProt P39386).
T1 construct: full ORF in modified pBAD/Myc-His A, decaHis tag removed with thrombin; expressed in E. coli LMG194; IMAC with ATP wash to remove chaperonin, SEC in DDM; ~45 kDa; monomer
In words: intrinsic tryptophan fluorescence quenching. The class given is binding.

Molecules are shown by their SMILES.

T1 sequence (P39386 whole entry): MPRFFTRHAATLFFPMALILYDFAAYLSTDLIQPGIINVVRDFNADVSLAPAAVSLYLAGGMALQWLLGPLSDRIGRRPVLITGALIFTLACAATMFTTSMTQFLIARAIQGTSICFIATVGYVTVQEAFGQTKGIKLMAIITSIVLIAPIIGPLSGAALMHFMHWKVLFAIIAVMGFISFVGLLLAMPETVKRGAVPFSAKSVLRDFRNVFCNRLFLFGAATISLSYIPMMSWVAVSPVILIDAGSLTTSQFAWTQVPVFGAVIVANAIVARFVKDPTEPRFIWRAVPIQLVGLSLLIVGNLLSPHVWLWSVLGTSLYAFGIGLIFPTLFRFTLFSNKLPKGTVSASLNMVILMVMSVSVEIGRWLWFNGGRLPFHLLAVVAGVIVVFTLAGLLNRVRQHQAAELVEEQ

`O=C(N[C@H](CO)[C@H](O)c1ccc([N+](=O)[O-])cc1)C(Cl)Cl` [chloramphenicol] displayed a Kd of 0.036 ± 0.003 µM.
